Data set [1] concerns Salmonella typhimurium TA98, TA100, TA1535, TA97a and TA102. Put plainly: AMES testing (bacterial reverse mutation test, Salmonella/microsome assay), all strains. In kind it is cell-based. The text has this:
(§1) The Ames assay is a rapid, reliable and economical method for screening compounds for potential genetic activity at the nucleotide level. A large database has been accumulated with this assay, confirming its ability to detect genetically active compounds of most chemical classes with around 80 to 90% sensitivity and specificity.
(§2) With the exception of strain TA102, these strains require biotin as well as histidine for growth. In strain TA102 the critical mutation in the histidine gene is located on a multicopy plasmid pAQ1. This strain is particularly sensitive to the activities of oxidative and cross-linking mutagens. The plasmid derivatives (TA98, TA100, TA97a and TA102) have increased sensitivity to certain mutagens as the pKM101 plasmid codes for an error-prone DNA repair system^(1,3).
(§3) When exposed to a mutagen, some of the bacteria in the treated population, through chemical interaction with the compound, undergo genetic changes which cause them to revert to a non-histidine-requiring state and thus grow in the absence of exogenous histidine. Different tester strains are used because each is mutated by particular chemical classes of compound. A compound that is mutagenic in one strain need not be so in another^(1,3).
(§4) Test item: INT 3, also known as 5-fluoro-2-methyl-3-(4,4,5,5-tetramethyl-1,3,2-dioxaborolan-2-yl)aniline. Vehicle: Di-methyl sulfoxide (DMSO) Purity/Content of drug: 97.95%. Molecular Structure:
(§5) Strains of Salmonella typhimurium used^(4,5,6): TA98, TA100, TA1535, TA97a and TA102. Metabolic activation system^(2): Liver S-9 mix from male rats, Aroclor 1254-pretreated. Per plate, 0.5 mL of 5% S-9 mix was added. Controls: Control treatments comprised additions at the same volume per plate (0.1 mL) as the test item solutions. Negative controls comprised treatments with the chosen vehicle.
(§6) Concentrations tested (Mutaqenicity Study): 50, 158, 501, 1582 and 5000 μg/plate (using all strains+/−S-9). […] Mutagenicity: Data from control treatments confirmed the correct strain and assay functioning, and the data were accepted as valid.
(§7) Acceptance criteria: The assay was considered valid as all the following criteria were met: • 1. Vehicle control counts fell within the normal ranges; • 2. The positive control chemicals induced increases in revertant numbers by 5- to 30-fold for different strains when compared to the concurrent vehicle controls confirming discrimination between different strains, and an active S-9 preparation.
(§8) Evaluation criteria: For valid data, the test item was considered mutagenic in this assay if a concentration related increase in revertant numbers of 2-fold (in strains TA98, TA100, TA1535 or TA97a) or 1.5-fold (in strain TA102) the concurrent vehicle control values was observed. […]

For data set [2], the system named is Salmonella typhimurium tester strain TA97a. Nature of the data set: AMES testing (bacterial reverse mutation test, Salmonella/microsome assay), strain TA97a. In kind it is cell-based. The settings on record: for increase in the number of revertants over the concurrent vehicle controls: strain TA97a; for mutagenicity (overall conclusion): strain TA97a in presence of metabolic activation, criterion 2-fold increase in revertants.
Source text: as §1, §2, §3, §4, §5, §6, §7, §8

With `Cc1c(N)cc(F)cc1B1OC(C)(C)C(C)(C)O1` [INT 3, 5-fluoro-2-methyl-3-(4,4,5,5-tetramethyl-1,3,2-dioxaborolan-2-yl)aniline], the “increase in revertant numbers over the concurrent vehicle controls, other strain treatments” value in data set [1] (any other strain treatments (TA98, TA100, TA1535, TA97a without S-9), 50-5000 μg/plate, +/- S-9) was below 2 fold. For the same compound, in data set [1] (preliminary cytotoxicity and mutagenicity test, any strain, presence and absence of metabolic activation, up to 5000 μg/plate), the “cytotoxicity to tester strains” value was “did not indicate any cytotoxicity”. Moreover, in data set [1] (strain TA102, 50-5000 μg/plate, +/- S-9), the “increase in revertant numbers over the concurrent vehicle controls, strain TA102” value is given as below 1.5 fold. Further, in data set [1] (up to highest concentration (5000 μg/plate), presence and absence of metabolic activation, vehicle DMSO), the “precipitation of test item” value is on record as “did not precipitate”. The “increase in the number of revertants over the concurrent vehicle controls” value in data set [2] (Experiment 1, 5000 μg/plate, in the presence of metabolic activation (rat liver S-9)) was found to be 2.3 fold; in data set [2] (Experiment 2, highest test concentration 5000 μg/plate, in presence of metabolic activation (rat liver S-9)) it was 1.8 fold. The “mutagenicity (overall conclusion)” value is reported as “mutagenic potential” in data set [2] and “weak mutagenic potential” in data set [2] (listed as INT3).

The record behind these values is patent US20260209185A1, “SYNTHESIS METHODS AND INTERMEDIATES FOR THE PRODUCTION OF REMIMBRUTINIB” (NOVARTIS AG, priority 2022, published 2026).
